In PubChem BioAssay AID248 (DTP/NCI, 2004):
Where “and” joins values, the source holds several entries; their conditions need not be identical. Equal values may be shown once. Inconclusive results and toxic doses are left out. No stated cut-off is given here; in the data, active means T/C of 150% or more; inactive means T/C below 125%.

Tested on: L1210 leukemia ip in BDF1 mice, survival T/C
Assay: NCI In Vivo Anticancer Drug Screen. Data for tumor model L1210 Leukemia (intraperitoneal) in B6D2F1 (BDF1) mice
Conditions: endpoint: mean survival time, higher = longer survival
In short: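 Transplantable tumor model; survival measured in treated vs vehicle control mice. Value = treated/control.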

[1] = dose: 50.0 mg/kg/injection, schedule: Q01DX001 (ip), vehicle: saline
[2] = dose: 100.0 mg/kg/injection, schedule: Q04DX002 (ip), vehicle: Klucel (hydroxypropylcellulose) (HPC)
[3] = dose: 200.0 mg/kg/injection, schedule: Q04DX002 (ip), vehicle: Klucel (hydroxypropylcellulose) (HPC)
[4] = dose: 400.0 mg/kg/injection, schedule: Q04DX002 (ip), vehicle: Klucel (hydroxypropylcellulose) (HPC)
[5] = dose: 100.0 mg/kg/injection, schedule: Q04DX003 (ip), vehicle: Klucel (hydroxypropylcellulose) (HPC)
[6] = dose: 200.0 mg/kg/injection, schedule: Q04DX003 (ip), vehicle: Klucel (hydroxypropylcellulose) (HPC)
[7] = dose: 400.0 mg/kg/injection, schedule: Q04DX003 (ip), vehicle: Klucel (hydroxypropylcellulose) (HPC)
[8] = dose: 50.0 mg/kg/injection, schedule: Q04DX002 (ip), vehicle: Klucel (hydroxypropylcellulose) (HPC)
[9] = dose: 100.0 mg/kg/injection, schedule: Q01DX001 (ip), vehicle: saline
[10] = dose: 200.0 mg/kg/injection, schedule: Q01DX001 (ip), vehicle: saline
[11] = dose: 400.0 mg/kg/injection, schedule: Q01DX001 (ip), vehicle: saline
[12] = dose: 25.0 mg/kg/injection, schedule: Q01DX009 (ip), vehicle: Klucel (hydroxypropylcellulose) (HPC)
[13] = dose: 100.0 mg/kg/injection, schedule: Q01DX009 (ip), vehicle: Klucel (hydroxypropylcellulose) (HPC)
[14] = dose: 100.0 mg/kg/injection, schedule: Q01DX009 (ip), vehicle: saline
[15] = dose: 200.0 mg/kg/injection, schedule: Q01DX009 (ip), vehicle: saline
[16] = dose: 400.0 mg/kg/injection, schedule: Q01DX009 (ip), vehicle: saline

Measured: T/C

CC1=CN(C)C(=O)CC1
inactive: dose: 100.0 mg/kg/injection, schedule: Q01DX001 (ip), vehicle: acetone 96 % of control | dose: 200.0 mg/kg/injection, schedule: Q01DX001 (ip), vehicle: acetone 96 % of control | dose: 400.0 mg/kg/injection, schedule: Q01DX001 (ip), vehicle: acetone 104 % of control

CCCCNCC#N
inactive: [1] 110 % of control

CN1C(=O)c2ccccc2/C=C\c2ccccc21
inactive: [2] 103 % of control | [3] 92 % of control | [4] 87 % of control

O=C(O)c1ccccc1Cl
inactive: [5] 103 % of control | [6] 108 % of control | [7] 102 % of control

C[Si](C)(C)CCc1ccccc1
inactive: dose: 100.0 mg/kg/injection, schedule: Q04DX003 (ip), vehicle: saline with Tween-80 98 % of control | dose: 200.0 mg/kg/injection, schedule: Q04DX003 (ip), vehicle: saline with Tween-80 95 % of control | dose: 400.0 mg/kg/injection, schedule: Q04DX003 (ip), vehicle: saline with Tween-80 93 % of control

CC1(C)CC(=O)C2=C(C1)Nc1ccc(Cl)cc1NC2c1ccccc1 (stereo unspecified)
inactive: dose: 25.0 mg/kg/injection, schedule: Q04DX002 (ip), vehicle: Klucel (hydroxypropylcellulose) (HPC) 92 % of control | [8] 106 % of control | [2] 92 % of control | [3] 103 % of control and 113 % of control | [4] 106 % of control

CC(=O)Nc1nc(Cl)c2ncn(C3OC(COC(=O)c4ccccc4)C(OC(=O)c4ccccc4)C3OC(=O)c3ccccc3)c2n1 (stereo unspecified)
inactive: dose: 75.0 mg/kg/injection, schedule: Q01DX001 (ip), vehicle: saline 95 % of control | [9] 103 % of control | dose: 150.0 mg/kg/injection, schedule: Q01DX001 (ip), vehicle: saline 98 % of control | [10] 101 % of control | dose: 300.0 mg/kg/injection, schedule: Q01DX001 (ip), vehicle: saline 95 % of control | [11] 95 % of control

Clc1ccccc1C(c1ccc(I)cc1)C(Cl)Cl (stereo unspecified)
inactive: [9] 101 % of control | [10] 93 % of control | [11] 104 % of control

Nc1ccc(Cc2ccc(Br)cc2)cc1
inactive: dose: 75.0 mg/kg/injection, schedule: Q01DX001 (ip), vehicle: acetone 91 % of control | dose: 150.0 mg/kg/injection, schedule: Q01DX001 (ip), vehicle: acetone 94 % of control | dose: 300.0 mg/kg/injection, schedule: Q01DX001 (ip), vehicle: acetone 94 % of control

CCOC(=O)/C=C/c1c(C)[nH]c(=O)[nH]c1=O
inactive: [9] 94 % of control | dose: 150.0 mg/kg/injection, schedule: Q04DX003 (ip), vehicle: saline 102 % of control | [10] 93 % of control | dose: 300.0 mg/kg/injection, schedule: Q04DX003 (ip), vehicle: saline 96 % of control | [11] 93 % of control | dose: 600.0 mg/kg/injection, schedule: Q04DX003 (ip), vehicle: saline 103 % of control

O=c1[nH]cnc2c1ncn2C1OC(CI)C(O)C1O (stereo unspecified)
inactive: dose: 100.0 mg/kg/injection, schedule: Q01DX005 (ip), vehicle: saline 95 % of control | dose: 200.0 mg/kg/injection, schedule: Q01DX005 (ip), vehicle: saline 101 % of control

O=c1ccccc(Br)c1O
inactive: dose: 100.0 mg/kg/injection, schedule: Q04DX003 (ip), vehicle: acetone 100 % of control | dose: 200.0 mg/kg/injection, schedule: Q04DX003 (ip), vehicle: acetone 98 % of control

C(=C\[P+](Cc1ccccc1)(c1ccccc1)c1ccccc1)/c1ccccc1
inactive: dose: 12.5 mg/kg/injection, schedule: Q04DX003 (ip), vehicle: saline with Tween-80 100 % of control | dose: 25.0 mg/kg/injection, schedule: Q04DX003 (ip), vehicle: saline with Tween-80 92 % of control

O=S1(=O)CCN(c2ccccc2CC(c2c[nH]c3ccccc23)c2c[nH]c3ccccc23)CC1
inactive: [9] 89 % of control | [10] 86 % of control

N#Cc1cc2c(N)[nH]nc2nc1N
inactive: [12] 89 % of control | dose: 50.0 mg/kg/injection, schedule: Q01DX009 (ip), vehicle: Klucel (hydroxypropylcellulose) (HPC) 93 % of control | [13] 86 % of control and 90 % of control | [5] 98 % of control | [6] 95 % of control | [7] 101 % of control

NC(=O)NC(=O)CC1NC(=O)NC1=O (stereo unspecified)
inactive: dose: 100.0 mg/kg/injection, schedule: Q04DX002 (ip), vehicle: saline 103 % of control | dose: 200.0 mg/kg/injection, schedule: Q04DX002 (ip), vehicle: saline 106 % of control | dose: 400.0 mg/kg/injection, schedule: Q04DX002 (ip), vehicle: saline 87 % of control

CC(=O)Oc1cc(Cl)c(Cl)cc1Cl
inactive: [14] 100 % of control | dose: 100.0 mg/kg/injection, schedule: Q04DX002 (ip), vehicle: gum acacia 102 % of control | [15] 100 % of control | dose: 200.0 mg/kg/injection, schedule: Q04DX002 (ip), vehicle: gum acacia 110 % of control | [16] 102 % of control | dose: 400.0 mg/kg/injection, schedule: Q04DX002 (ip), vehicle: gum acacia 94 % of control

NC(=S)c1n[nH]nc1N
inactive: [1] 104 % of control | [9] 100 % of control | [10] 100 % of control

CC(=O)[O][Hg][c]1cc(C)cc([N+](=O)[O-])c1O
inactive: dose: 6.25 mg/kg/injection, schedule: Q01DX009 (ip), vehicle: Klucel (hydroxypropylcellulose) (HPC) 94 % of control | dose: 12.5 mg/kg/injection, schedule: Q01DX009 (ip), vehicle: Klucel (hydroxypropylcellulose) (HPC) 100 % of control | dose: 12.5 mg/kg/injection, schedule: Q04DX003 (ip), vehicle: Klucel (hydroxypropylcellulose) (HPC) 100 % of control | [12] 92 % of control | dose: 25.0 mg/kg/injection, schedule: Q04DX003 (ip), vehicle: Klucel (hydroxypropylcellulose) (HPC) 95 % of control

CC1CCCCN1P(c1ccccc1)N1CCCCC1C (stereo unspecified)
inactive: dose: 100.0 mg/kg/injection, schedule: Q04DX002 (sc), vehicle: olive oil, sesame oil, peanut oil 97 % of control | dose: 200.0 mg/kg/injection, schedule: Q04DX002 (sc), vehicle: olive oil, sesame oil, peanut oil 113 % of control | dose: 400.0 mg/kg/injection, schedule: Q04DX002 (sc), vehicle: olive oil, sesame oil, peanut oil 107 % of control

O=C(Nc1cccc2ccccc12)c1ccccc1O
inactive: dose: 50.0 mg/kg/injection, schedule: Q01DX001 (ip), vehicle: carboxymethylcellulose (CMC) 113 % of control | dose: 100.0 mg/kg/injection, schedule: Q01DX001 (ip), vehicle: carboxymethylcellulose (CMC) 108 % of control | dose: 200.0 mg/kg/injection, schedule: Q01DX001 (ip), vehicle: carboxymethylcellulose (CMC) 96 % of control | dose: 400.0 mg/kg/injection, schedule: Q01DX001 (ip), vehicle: carboxymethylcellulose (CMC) 116 % of control

CCOC(=O)NC(CCN(C)C)(c1cccc2ccccc12)C(C)C (stereo unspecified)
inactive: [8] 100 % of control | [13] 101 % of control | [2] 100 % of control

C[Si](C)(C)O[Si](C)(C)c1ccccc1
inactive: dose: 50.0 mg/kg/injection, schedule: Q01DX009 (ip), vehicle: saline 102 % of control | [14] 88 % of control | dose: 100.0 mg/kg/injection, schedule: Q04DX003 (ip), vehicle: saline 103 % of control | [15] 99 % of control | dose: 200.0 mg/kg/injection, schedule: Q04DX003 (ip), vehicle: saline 109 % of control | [16] 96 % of control | dose: 400.0 mg/kg/injection, schedule: Q04DX003 (ip), vehicle: saline 95 % of control

Cc1[nH]nc(C(F)(F)F)c1N=NN1CCC(C(N)=O)CC1
inactive: dose: 75.0 mg/kg/injection, schedule: Q01DX001 (ip), vehicle: carboxymethylcellulose (CMC) 95 % of control

COC(=O)c1ccc(C(=O)OC)c(NC(=O)CC(=O)c2ccc([N+](=O)[O-])cc2)c1
inactive: [13] 88 % of control | [5] 101 % of control | dose: 200.0 mg/kg/injection, schedule: Q01DX009 (ip), vehicle: Klucel (hydroxypropylcellulose) (HPC) 91 % of control | [6] 90 % of control | dose: 400.0 mg/kg/injection, schedule: Q01DX009 (ip), vehicle: Klucel (hydroxypropylcellulose) (HPC) 91 % of control | [7] 96 % of control
